In the experiment the target is GPR34 (Homo sapiens, UniProt Q9UPC5). The experiment in a line: Tango assay. In kind it is cell-based. The settings on record: compared with Hit-1 or YL-365.

These results are taken from PMC10523607 (Proceedings of the National Academy of Sciences of the …, 2023).

Each structure is given as a SMILES string.

GPR34, sequence (Q9UPC5 whole entry): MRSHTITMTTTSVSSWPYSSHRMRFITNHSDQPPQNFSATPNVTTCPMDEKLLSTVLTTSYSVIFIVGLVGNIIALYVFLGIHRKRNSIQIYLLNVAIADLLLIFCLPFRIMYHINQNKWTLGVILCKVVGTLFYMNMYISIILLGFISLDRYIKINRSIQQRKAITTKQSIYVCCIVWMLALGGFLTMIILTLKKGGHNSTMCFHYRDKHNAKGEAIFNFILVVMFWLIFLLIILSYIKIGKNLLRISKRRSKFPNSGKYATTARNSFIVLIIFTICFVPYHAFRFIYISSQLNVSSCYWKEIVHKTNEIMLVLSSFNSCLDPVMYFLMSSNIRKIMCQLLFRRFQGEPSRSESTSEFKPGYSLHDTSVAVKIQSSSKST

Consider `NC(=O)C1(NC(=O)Cc2ccc(OCc3ccccc3)cc2)CCN(C(=O)c2ccc(-c3cccc(Cl)c3)cc2)CC1` [C-27], for which the “Potency against GPR34 in words (SAR)” value was “showed antagonistic effect”.
